This note sets out measurements from ChEMBL document CHEMBL1132983, “Doubly homologated dihalovinyl and acetylene analogues of adenosine: synthesis, interaction with S-adenosyl-L-homocysteine hydrolase, and antiviral and cytostatic effects” (J Med Chem, 2000).

SMILES strings stand for the structures.

The target in test [1] is Adenosylhomocysteinase (Homo sapiens) (UniProt P23526). The test can be described thus: Compound was evaluated for inhibition of human placental AdoHcy hydrolase at a concentration of 0.1 uM.
Chain of Adenosylhomocysteinase (Homo sapiens) (P23526 2-432 limits assumed): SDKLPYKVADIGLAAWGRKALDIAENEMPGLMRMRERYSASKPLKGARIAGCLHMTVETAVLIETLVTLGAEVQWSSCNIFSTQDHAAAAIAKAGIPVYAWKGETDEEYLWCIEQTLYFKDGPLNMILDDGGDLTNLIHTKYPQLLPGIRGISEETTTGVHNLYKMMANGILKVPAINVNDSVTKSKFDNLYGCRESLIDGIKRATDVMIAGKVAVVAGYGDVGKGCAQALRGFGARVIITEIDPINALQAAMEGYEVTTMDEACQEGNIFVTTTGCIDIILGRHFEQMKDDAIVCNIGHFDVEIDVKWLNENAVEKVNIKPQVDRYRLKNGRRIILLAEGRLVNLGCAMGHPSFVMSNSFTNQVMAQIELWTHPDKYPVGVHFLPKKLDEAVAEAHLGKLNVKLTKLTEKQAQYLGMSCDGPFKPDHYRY
The target is the same in test [2]. The test can be described thus: Compound was evaluated for inhibition of human placental AdoHcy hydrolase at a concentration of 50 uM.
For test [3] the target is unchanged. The test is described as follows: Compound was evaluated for inhibition of human placental AdoHcy hydrolase at a concentration of 10 uM.
Test [4] shares this target. The test is described as follows: Compound was evaluated for inhibition of human placental AdoHcy hydrolase at a concentration of 100 uM.
Test [5] shares this target. The test is described as follows: Compound was evaluated for inhibition of human placental AdoHcy hydrolase at a concentration of 1.0 uM.

Consider `Nc1ncnc2c1ncn2C1O[C@H](C/C=C(/F)Br)[C@@H](O)[C@H]1O` (stereo not given in full), for which the Enzyme activity in test [1] was 90.6%; in test [2] it was 9.7%; in test [3], 37.4%; in test [4], 5.8%; in test [5] it was 87.4%.
As for `Nc1ncnc2c1ncn2C1O[C@H](CC=C(Br)Br)[C@@H](O)[C@H]1O` (stereo not given in full), the Enzyme activity turned out to be 87.5% in test [1]; 5% in test [2]; 17.1% in test [3]; 4% in test [4]; 48.5% in test [5].
For `C#CC[C@H]1OC(n2cnc3c(N)ncnc32)[C@H](O)[C@@H]1O` (stereo not given in full) the same measures were 98.3%, 14.3%, 38.9%, 8% and 73.4%.
